Earlier results in US7166608B2, “N-aroyl piperazine derivatives as orexin receptor antagonists” (SmithKline Beecham p.l.c., priority 2001, dated 2007).

Columns and labels:
freely-feeding rats = details: central administration, 4 hour time period
rat sleep/EEG = details: central administration at the onset of the normal sleep period

orexin-A: peptide ligand (agonist) of the orexin receptors; human sequence given in the 1st table (EPLPDCCRQKTCSCRLYELLHGAGNHAAGILTLNH; Human orexin A)
increase in food intake over control rats receiving vehicle (freely-feeding rats): approximately four-fold | effect on arousal and sleep (rat sleep/EEG): dose-related increase in arousal
